Legend:
Conditions in all cases: Compound concentration 1000.0 nM
[1] = target: Tyrosine-protein kinase CSK (Homo sapiens) (UniProt P41240)
[2] = target: Death-associated protein kinase 2 (Homo sapiens) (UniProt Q9UIK4)
[3] = target: Tyrosine-protein kinase Fer (Homo sapiens) (UniProt P16591)
[4] = tested on: Mast/stem cell growth factor receptor Kit (Homo sapiens), P10721 [D816H]
[5] = target: Serine/threonine-protein kinase PAK 4 (Homo sapiens) (UniProt O96013)
[6] = target: Phosphatidylinositol 5-phosphate 4-kinase type-2 gamma (Homo sapiens) (UniProt Q8TBX8)
[7] = target: Serine/threonine-protein kinase PLK3 (Homo sapiens) (UniProt Q9H4B4)

Measured: residual activity

Death-associated protein kinase 2 (Homo sapiens), sequence (Q9UIK4 whole entry, looked up): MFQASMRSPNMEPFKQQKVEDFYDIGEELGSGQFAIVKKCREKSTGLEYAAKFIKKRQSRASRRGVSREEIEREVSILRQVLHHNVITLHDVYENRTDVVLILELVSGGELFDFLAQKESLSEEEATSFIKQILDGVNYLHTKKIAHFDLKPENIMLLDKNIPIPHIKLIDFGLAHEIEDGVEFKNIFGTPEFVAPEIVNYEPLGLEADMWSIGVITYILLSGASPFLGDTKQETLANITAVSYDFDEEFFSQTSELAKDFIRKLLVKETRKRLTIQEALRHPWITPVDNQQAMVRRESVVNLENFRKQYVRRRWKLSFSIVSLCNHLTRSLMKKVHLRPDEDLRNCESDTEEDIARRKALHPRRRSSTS
Tyrosine-protein kinase CSK (Homo sapiens), sequence (P41240 2-450 limits assumed): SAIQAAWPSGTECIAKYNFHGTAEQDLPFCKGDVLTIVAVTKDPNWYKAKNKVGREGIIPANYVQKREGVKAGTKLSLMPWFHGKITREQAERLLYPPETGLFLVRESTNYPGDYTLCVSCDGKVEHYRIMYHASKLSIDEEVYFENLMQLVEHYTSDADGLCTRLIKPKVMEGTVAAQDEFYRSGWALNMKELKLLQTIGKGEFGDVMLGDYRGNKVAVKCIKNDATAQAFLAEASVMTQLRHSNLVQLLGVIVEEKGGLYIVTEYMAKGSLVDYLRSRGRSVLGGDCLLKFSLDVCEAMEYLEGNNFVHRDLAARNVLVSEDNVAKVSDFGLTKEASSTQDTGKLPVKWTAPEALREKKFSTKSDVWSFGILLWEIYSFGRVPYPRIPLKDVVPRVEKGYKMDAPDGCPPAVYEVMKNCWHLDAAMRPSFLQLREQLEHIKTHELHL
Serine/threonine-protein kinase PAK 4 (Homo sapiens), sequence (O96013 whole entry, looked up): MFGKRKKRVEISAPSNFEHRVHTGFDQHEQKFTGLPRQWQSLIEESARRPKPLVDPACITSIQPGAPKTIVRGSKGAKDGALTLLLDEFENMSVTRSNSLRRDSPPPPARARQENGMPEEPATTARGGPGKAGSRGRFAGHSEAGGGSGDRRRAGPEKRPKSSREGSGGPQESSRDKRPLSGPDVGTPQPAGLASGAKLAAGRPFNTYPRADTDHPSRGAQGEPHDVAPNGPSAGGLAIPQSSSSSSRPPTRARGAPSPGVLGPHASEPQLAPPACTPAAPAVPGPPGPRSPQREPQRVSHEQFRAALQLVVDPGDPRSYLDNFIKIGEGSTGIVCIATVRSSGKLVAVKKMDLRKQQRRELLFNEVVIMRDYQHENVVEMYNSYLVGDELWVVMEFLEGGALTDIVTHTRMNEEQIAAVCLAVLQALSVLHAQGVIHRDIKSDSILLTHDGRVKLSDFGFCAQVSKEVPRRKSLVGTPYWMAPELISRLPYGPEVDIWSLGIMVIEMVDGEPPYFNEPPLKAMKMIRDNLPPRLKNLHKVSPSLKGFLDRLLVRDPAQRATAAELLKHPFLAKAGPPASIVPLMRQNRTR
Tyrosine-protein kinase Fer (Homo sapiens), sequence (P16591 whole entry, looked up): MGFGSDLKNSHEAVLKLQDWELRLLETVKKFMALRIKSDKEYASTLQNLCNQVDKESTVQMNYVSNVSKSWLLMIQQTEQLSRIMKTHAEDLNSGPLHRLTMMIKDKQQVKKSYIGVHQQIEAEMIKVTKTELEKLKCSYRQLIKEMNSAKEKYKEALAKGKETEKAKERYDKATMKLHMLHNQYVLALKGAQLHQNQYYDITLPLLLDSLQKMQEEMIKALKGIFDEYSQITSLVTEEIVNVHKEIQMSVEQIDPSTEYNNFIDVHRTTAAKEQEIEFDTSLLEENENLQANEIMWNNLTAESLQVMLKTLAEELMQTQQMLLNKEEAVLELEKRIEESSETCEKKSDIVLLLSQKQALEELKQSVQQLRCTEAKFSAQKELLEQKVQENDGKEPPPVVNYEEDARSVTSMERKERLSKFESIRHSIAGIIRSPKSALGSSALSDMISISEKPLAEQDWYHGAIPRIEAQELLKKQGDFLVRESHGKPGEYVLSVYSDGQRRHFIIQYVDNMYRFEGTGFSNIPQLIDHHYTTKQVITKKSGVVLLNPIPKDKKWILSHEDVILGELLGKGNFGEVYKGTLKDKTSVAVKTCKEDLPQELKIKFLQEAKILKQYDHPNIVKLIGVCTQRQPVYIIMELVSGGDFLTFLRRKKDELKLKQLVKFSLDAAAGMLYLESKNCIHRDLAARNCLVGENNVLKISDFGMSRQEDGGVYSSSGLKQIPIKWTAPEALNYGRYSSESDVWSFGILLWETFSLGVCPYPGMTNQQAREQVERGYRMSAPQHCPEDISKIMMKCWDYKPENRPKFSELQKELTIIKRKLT
Mast/stem cell growth factor receptor Kit (Homo sapiens), P10721 [D816H], sequence (P10721 whole entry D816H): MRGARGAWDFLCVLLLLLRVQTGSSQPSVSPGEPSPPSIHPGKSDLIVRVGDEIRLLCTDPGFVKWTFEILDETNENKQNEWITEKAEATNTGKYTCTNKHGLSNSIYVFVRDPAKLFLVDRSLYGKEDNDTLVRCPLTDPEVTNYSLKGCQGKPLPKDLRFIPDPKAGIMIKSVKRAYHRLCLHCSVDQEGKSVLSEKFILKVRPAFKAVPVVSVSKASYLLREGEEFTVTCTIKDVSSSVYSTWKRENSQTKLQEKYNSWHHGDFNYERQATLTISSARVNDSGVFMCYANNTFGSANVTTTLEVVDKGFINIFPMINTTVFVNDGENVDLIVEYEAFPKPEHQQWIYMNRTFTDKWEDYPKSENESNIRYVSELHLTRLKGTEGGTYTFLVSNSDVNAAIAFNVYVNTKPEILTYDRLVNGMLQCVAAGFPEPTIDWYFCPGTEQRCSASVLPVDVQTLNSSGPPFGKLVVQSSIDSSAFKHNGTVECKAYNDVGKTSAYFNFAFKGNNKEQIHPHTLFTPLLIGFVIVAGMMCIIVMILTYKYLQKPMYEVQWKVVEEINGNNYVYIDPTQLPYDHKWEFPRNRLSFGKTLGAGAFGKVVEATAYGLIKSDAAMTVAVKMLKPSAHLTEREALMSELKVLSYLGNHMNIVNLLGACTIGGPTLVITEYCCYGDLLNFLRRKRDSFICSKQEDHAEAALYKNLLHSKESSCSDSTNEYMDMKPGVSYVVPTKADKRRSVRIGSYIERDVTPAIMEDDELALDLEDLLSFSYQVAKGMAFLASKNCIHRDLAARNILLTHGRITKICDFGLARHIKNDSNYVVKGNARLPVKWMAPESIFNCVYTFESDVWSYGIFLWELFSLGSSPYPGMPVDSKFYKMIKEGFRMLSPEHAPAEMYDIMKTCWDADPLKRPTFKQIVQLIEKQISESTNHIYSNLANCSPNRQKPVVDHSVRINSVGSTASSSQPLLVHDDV
Serine/threonine-protein kinase PLK3 (Homo sapiens), sequence (Q9H4B4 whole entry, looked up): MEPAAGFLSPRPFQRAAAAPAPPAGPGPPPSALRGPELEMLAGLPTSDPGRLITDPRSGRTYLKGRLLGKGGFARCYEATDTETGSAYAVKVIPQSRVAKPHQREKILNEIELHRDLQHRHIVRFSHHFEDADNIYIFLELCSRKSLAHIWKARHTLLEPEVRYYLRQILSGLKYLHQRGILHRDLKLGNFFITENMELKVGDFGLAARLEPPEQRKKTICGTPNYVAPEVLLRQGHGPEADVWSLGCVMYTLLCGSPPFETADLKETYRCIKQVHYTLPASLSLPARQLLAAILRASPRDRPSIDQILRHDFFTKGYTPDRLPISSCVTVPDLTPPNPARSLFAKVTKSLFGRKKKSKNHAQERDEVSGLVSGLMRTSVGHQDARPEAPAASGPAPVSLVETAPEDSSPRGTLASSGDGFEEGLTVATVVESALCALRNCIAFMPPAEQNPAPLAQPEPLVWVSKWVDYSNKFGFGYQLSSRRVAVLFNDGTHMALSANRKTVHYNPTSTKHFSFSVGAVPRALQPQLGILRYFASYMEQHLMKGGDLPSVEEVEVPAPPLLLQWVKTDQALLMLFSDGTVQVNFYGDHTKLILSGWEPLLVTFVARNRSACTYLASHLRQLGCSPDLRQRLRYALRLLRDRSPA
Phosphatidylinositol 5-phosphate 4-kinase type-2 gamma (Homo sapiens), sequence (Q8TBX8 whole entry): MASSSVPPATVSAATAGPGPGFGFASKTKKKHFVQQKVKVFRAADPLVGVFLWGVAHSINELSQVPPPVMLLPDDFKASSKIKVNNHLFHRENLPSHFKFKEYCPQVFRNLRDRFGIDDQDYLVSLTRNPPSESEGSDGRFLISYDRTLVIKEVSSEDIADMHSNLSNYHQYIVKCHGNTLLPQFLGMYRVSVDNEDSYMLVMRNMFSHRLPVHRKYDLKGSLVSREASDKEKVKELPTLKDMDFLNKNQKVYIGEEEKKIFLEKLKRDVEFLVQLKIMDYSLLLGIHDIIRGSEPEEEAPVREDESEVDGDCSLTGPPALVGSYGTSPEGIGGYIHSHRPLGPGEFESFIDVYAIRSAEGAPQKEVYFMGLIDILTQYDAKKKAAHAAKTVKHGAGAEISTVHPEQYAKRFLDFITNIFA

CN(C)CC#Cc1ccc(OCCCc2sc(N3CCc4cccc(C(=O)Nc5nc6ccccc6s5)c4C3)nc2C(=O)O)c(F)c1 [A-1155463]
inactive: [1] 90% | [2] 90% | [3] 100% | [4] 71% | [5] 96% | [6] 100% | [7] 92%
